{"source": "patent US20210393547A1", "about": "“USE OF EMODIN IN TREATING RETINAL ISCHEMIA OR A DISEASE, CONDITION, OR DISORDER ASSOCIATED WITH RETINAL ISCHEMIA” (priority 2020, published 2021)", "system": "retinal ischemia in Wistar rats", "assay": "ERG b-wave recording after raised-IOP retinal ischemia/reperfusion", "format": "in vivo, rat", "details": "for ERG b-wave ratio (treated eye to untreated fellow eye): mean±S.E.M.; for ERG b-wave amplitude: Wistar rat", "experimental": "Emodin was purchased from Sigma-Aldrich (E7881; 90%; storage at 2-8° C.; from Frangula bark; St. Louis, Mo., United States). Drug administration for different procedures, namely ERG, fluorogold RGC labelling, cresyl violet retinal staining and Western blot assays, were described in Tables 3 to 6. Vehicle or emodin (5 μL) was administered via an intravitreous injection route so that these agents were then able to be directly diffused to the target. Emodin was dissolved in vehicle (DMSO:distilled water=1:3). The defined final cellular concentrations of administered drug were 0.25 or 0.5 μM, which were achieved after 40 times dilution from the stock concentrations, namely 10 or 20 μM, based on an arbitrary definition of the vitreous volume as 200 μL. To test a wider range of dose-response, 4 μM of emodin was thus added in the animal experiments. The Vehicle+IR and Emo+IR groups (pre-ischemic administration of emodin 4, 10 or 20 μM) were subjected to following the experimental procedures; these were initial pre-ischemic intravitreous injection (vehicle or emodin), retinal ischemia induction 1 day later, and sacrifice of the animal on the following day to allow the various post-mortem procedures except ERG. In the post-ischemic treatment group, in order to decrease the number of animals used, the present invention only used a single emodin concentration of 20 μM. Furthermore, intravitreous emodin was given 1 day after initial retinal ischemia induction and animals were sacrificed the following day to allow the performance of various post-mortem procedures as mentioned above.\nThe IOP procedure used raised the IOP and was designed to cause retinal ischemia in Wistar rats and simulate ischemic retinal disorders. The rats were anesthetized and constrained with a sterotaxic frame. A 30-gauge needle connected to an elevated saline bottle was attached to anterior chamber of the rat's eye. The pressure exerted by the saline inside the bottle was controlled to 120 mmHg. This procedure was conducted for 1 hour. Successful retinal ischemia induction was confirmed by observing that the whitening of the retina took place. Throughout the experiments, the animals were kept on heat mats to maintain their temperature. The sham procedure involved keeping the pressure in saline bottle 0 mmHg.\nAnimals were given anesthesia prior to the flash ERG measurements. For the Sham or pre-ischemic treatment group (intravitreous injection of emodin or vehicle 1 day before ischemia; Emodin+IR or Vehicle+IR), flash ERG responses were measured before the sham procedure, IR procedures or any drug administration (day 0), and one day after the sham procedure or IR procedure with pre-ischemic intravitreous injection. In the post-ischemic treatment group, ERG recordings were collected pre-ischemia (day 0), and post-ischemia (at timepoints: 1 day after ischemia; 1 day after post-ischemic intravitreous injection of emodin). Dark adaption and pupil dilation using 1% tropicamide and 2.5% phenylephrine were carried out 8 hours before the ERG measurement. The ERG recording machinery was purchased from the Grass-Telefactor Company (AstroNova, QC, Canada) and included a stimulator (PS22), a regulated power supply (RPS107), and an amplifier (P511). A strobe light (0.5 Hz), which acted as the source of stimulus, was placed 2 cm directly in front of the rat's eye. Fifteen consecutive measurements (10 kHz) were retrieved every two seconds. The amplitudes were calculated to obtain an average. To make comparisons between the various groups, the ratios of the b-wave amplitude of one eye (sham procedure or ischemic insult with defined agents) to that of the untreated fellow normal eye were analyzed.", "data": [{"smiles": "Cc1cc(O)c2c(c1)C(=O)c1cc(O)cc(O)c1C2=O", "note": "[emodin, 6-methyl-1,3,8-trihydroxyanthraquinone]", "values": [{"measurement": "ERG b-wave ratio (treated eye to untreated fellow eye)", "setting": "Emo4+IR: pre-ischemic intravitreous 4 μM emodin, n=8, Sham normalized to 1, Vehicle+IR 0.04", "value": "0.08±0.07"}, {"measurement": "ERG b-wave amplitude", "setting": "Emo4+IR: pre-ischemic intravitreous injection of 4 μM emodin followed by IR, Sham 0.87, Vehicle+IR 0.03", "value": 0.07, "unit": "mV"}, {"measurement": "ERG b-wave ratio (treated eye to untreated fellow eye)", "setting": "Emo10+IR: pre-ischemic intravitreous 10 μM emodin, n=4, P<0.001 vs Vehicle+IR", "value": "0.64±0.28"}, {"measurement": "ERG b-wave amplitude", "setting": "Emo10+IR: pre-ischemic intravitreous injection of 10 μM emodin followed by IR", "value": 0.58, "unit": "mV"}, {"measurement": "ERG b-wave ratio (treated eye to untreated fellow eye)", "setting": "Emo20+IR: pre-ischemic intravitreous 20 μM emodin, n=4, P<0.001 vs Vehicle+IR", "value": "0.99±0.18"}, {"measurement": "ERG b-wave amplitude", "setting": "Emo20+IR: pre-ischemic intravitreous injection of 20 μM emodin followed by IR", "value": 0.63, "unit": "mV"}, {"measurement": "ERG b-wave amplitude", "setting": "IR+Emo20: IR followed by post-ischemic intravitreous injection of 20 μM emodin", "value": 0.12, "unit": "mV"}, {"measurement": "ERG b-wave ratio (treated eye to untreated fellow eye)", "setting": "IR+Emo20: post-ischemic intravitreous 20 μM emodin, n=9, P<0.001 vs Vehicle+IR", "value": "0.24±0.09"}]}]}
